Measured values: US10398751B2, “Pharmaceutical compositions of water soluble peptides with poor solubility in isotonic conditions and methods for their use” (STRONGBRIDGE IRELAND LIMITED, priority 2016, dated 2019)
Where a name gives a salt, the structure may show the parent alone.

Experiment: Peptide content, encapsulation efficiency and residual additives of microspheres
Assay type: physicochemical
Settings: Example 7 PLGA 50:50 (7-17 kDa) microspheres
From the text: These observations and conclusion are supported by the analysis of the residual HPB concentration in the MS formulations of HPB. Indeed, the analytical data (see below) confirms that the same ratio of HPB:PEP were maintained in the final MS of HPB and therefore verifying the conditions and data of Table 6.
Therefore, unlike the case of HPB, the effect of the DEX on the COR005 surface activity at the injection site seems to be negligible. The effect for the DEX is addressed in the SEM analysis section below.
Tables 19 and 20 summarize the peptide content and encapsulation efficiency (EE) of bulk samples of microspheres, measured by HPLC.
PLGA microspheres containing veldoreotide acetate were prepared. 500 mg of PLGA 50:50 (7-17 kDa) was dissolved in 5 mL dichloromethane oil phase). An aqueous solution contacting 50 mg of veldoreotide acetate in 1 ml of DDW prepared separately (inner aqueous phase). The first aqueous phase was emulsified into the oil phase (containing PLGA), using a high-speed homogenizer (Polytron) at 2-8° C. using different speeds and time durations to form water in oil primary emulsion. The primary emulsion was added (drop wise) into the 100 ml of external aqueous phase containing 1% PVA solution in PBS to form secondary emulsion. […]

- encapsulation efficiency (EE) %: 77%
- final drug load in microspheres: 6 weight %
SMILES: C[C@@H](O)[C@@H]1NC(=O)[C@H](CCCCN)NC(=O)[C@@H](Cc2c[nH]c3ccccc23)NC(=O)[C@H](Cc2c[nH]c3ccccc23)NC(=O)[C@H](Cc2ccccc2)NC(=O)CCCNC(=O)CCCN(CC(N)=O)C(=O)[C@H](Cc2ccccc2)NC1=O [Veldoreotide Acetate, Cyclo(-γ-aminobutyryl-L-phenylalanyl-L-tryptophanyl-D-tryptophanyl-L-lysyl-L-threonyl-L-phenylalanyl-N-carbamoylmethyl-γ-aminobutyryl), acetate salt]
